Experimental findings from ChEMBL document CHEMBL1641584 (Bioorg Med Chem Lett, 2011) are described below.

Activity calls are given as the source filed them. The rule behind the calls is not given here.

Experiment [1] is described as follows: Inhibition of guinea pig protein-glutamine gamma-glutamyltransferase 2 assessed as fluorescent intensity of monodansyl cadaverine. Also on record: species or system Cavia porcellus.
The species entered for experiment [2] is Cavia porcellus. Put plainly: Inhibition of guinea pig protein-glutamine gamma-glutamyltransferase 2-mediated amyloid-beta oligomerization at 0.1 to 10 uM.

As usually defined, the IC50 is the concentration at which inhibition is half-maximal. On to `O=C(CCNCCSSCCNCCC(=O)c1ccco1)c1ccco1`, for which the IC50 in experiment [1] turned out to be 420 nM.
On to `O=C(CCNCCSSCCNCCC(=O)c1sccc1Br)c1sccc1Br`, for which, in experiment [1], the IC50 came out at 210 nM.
Regarding `COC(=O)C(CSSCC(NCCC(=O)c1cccs1)C(=O)OC)NCCC(=O)c1cccs1` (stereo not drawn), in experiment [1], the IC50 amounted to 400 nM.
Regarding `COC(=O)C(CSSCC(NCCC(=O)c1cccc(Br)n1)C(=O)OC)NCCC(=O)c1cccc(Br)n1` (stereo not drawn), the IC50 in experiment [1] was 1100 nM.
As for `O=C(CCNCCSSCCNCCC(=O)c1cccc(Br)n1)c1cccc(Br)n1`, in experiment [1], the IC50 came out at 2600 nM.
Same read-out and setting: the value for `COC(=O)C(CCSSCCC(NCCC(=O)c1ccc(I)s1)C(=O)OC)NCCC(=O)c1ccc(I)s1` (stereo not drawn) was 100 nM; that for `COC(=O)C(CSSCC(NCCC(=O)c1ccncc1)C(=O)OC)NCCC(=O)c1ccncc1` (stereo not drawn) was 3400 nM.
On the same count and under the same terms, the result for `O=C(CCNCCSSCCNCCC(=O)c1ccc(I)cc1)c1ccc(I)cc1` reads 890 nM; that for `COC(=O)C(CSSCC(NCCC(=O)c1ccc(C#N)cc1)C(=O)OC)NCCC(=O)c1ccc(C#N)cc1` (stereo not drawn), 1300 nM; that for `O=C(CCNCCSSCCNCCC(=O)c1ccc(Cl)s1)c1ccc(Cl)s1`, 120 nM.
The same measure, in the same setting: the value for `COC(=O)C(CCSSCCC(NCCC(=O)c1cccs1)C(=O)OC)NCCC(=O)c1cccs1` (stereo not drawn) was 3600 nM; that for `O=C(CCNCCSSCCNCCC(=O)c1ccc(I)s1)c1ccc(I)s1` was 170 nM; that for `COC(=O)C(CCSSCCC(NCCC(=O)c1ccc(Cl)s1)C(=O)OC)NCCC(=O)c1ccc(Cl)s1` (stereo not drawn) was 120 nM.
Turning to `O=C(CCNCCSSCCNCCC(=O)c1ccsc1)c1ccsc1`, the IC50 in experiment [1] was 1600 nM.
On to `COC(=O)C(CSSCC(NCCC(=O)c1ccc(Br)s1)C(=O)OC)NCCC(=O)c1ccc(Br)s1` (stereo not drawn), for which, in experiment [1], the IC50 turned out to be 180 nM.
Consider `COC(=O)C(CSSCC(NCCC(=O)c1nccs1)C(=O)OC)NCCC(=O)c1nccs1` (stereo not drawn), for which, in experiment [1], the IC50 was determined as 9700 nM.
As to `COC(=O)C(CSSCC(NCCC(=O)c1ccc(Cl)s1)C(=O)OC)NCCC(=O)c1ccc(Cl)s1` (stereo not drawn), in experiment [1], the IC50 is 190 nM.
For the molecule `COC(=O)C(CCSSCCC(NCCC(=O)c1ccc(Br)cc1)C(=O)OC)NCCC(=O)c1ccc(Br)cc1` (stereo not drawn), the IC50 in experiment [1] came out at 1600 nM.
With `O=C(CCNCCSSCCNCCC(=O)c1cc2ccccc2s1)c1cc2ccccc2s1`, the IC50 in experiment [1] was determined as 170 nM.
On to `COC(=O)C(CSSCC(NCCC(=O)c1ccc2ccccc2c1)C(=O)OC)NCCC(=O)c1ccc2ccccc2c1` (stereo not drawn), for which, in experiment [1], the IC50 is 19000 nM.
As for `O=C(CCNCCSSCCNCCC(=O)c1ccccc1)c1ccccc1`, in experiment [1], the IC50 was found to be 2200 nM.
With `COC(=O)C(CCSSCCC(NCCC(=O)c1sccc1Br)C(=O)OC)NCCC(=O)c1sccc1Br` (stereo not drawn), the IC50 in experiment [1] came to 330 nM.
With `O=C(CCNCCSSCCNCCC(=O)c1ccc(Br)s1)c1ccc(Br)s1`, the IC50 in experiment [1] turned out to be 120 nM.
With `O=C(CCNCCSSCCNCCC(=O)c1ccc2ccccc2c1)c1ccc2ccccc2c1`, in experiment [1], the IC50 amounted to 2000 nM.
Consider `COC(=O)C(CSSCC(NCCC(=O)c1sccc1Br)C(=O)OC)NCCC(=O)c1sccc1Br` (stereo not drawn), for which the IC50 in experiment [1] was found to be 5700 nM.
As to `O=C(CCNCCSSCCNCCC(=O)c1ccc(Br)cc1)c1ccc(Br)cc1`, the IC50 in experiment [1] turned out to be 120 nM.
Regarding `COC(=O)C(CSSCC(NCCC(=O)c1cc2ccccc2s1)C(=O)OC)NCCC(=O)c1cc2ccccc2s1` (stereo not drawn), the IC50 in experiment [1] was found to be 900 nM.
The same measure, in the same setting: the result for `COC(=O)C(CSSCC(NCCC(=O)c1ncc(C)s1)C(=O)OC)NCCC(=O)c1ncc(C)s1` (stereo not drawn) reads 4000 nM; that for `O=C(CCNCCSSCCNCCC(=O)c1cccs1)c1cccs1`, 510 nM; that for `COC(=O)C(CCSSCCC(NCCC(=O)c1cc2ccccc2s1)C(=O)OC)NCCC(=O)c1cc2ccccc2s1` (stereo not drawn), 120 nM.
As for `N#Cc1ccc(C(=O)CCNCCSSCCNCCC(=O)c2ccc(C#N)cc2)cc1`, in experiment [1], the IC50 worked out at 1100 nM.
Turning to `O=C(CCNCCSSCCNCCC(=O)c1cccnc1)c1cccnc1`, the IC50 in experiment [1] was determined as 1400 nM.
In the case of `NNC(=O)CSc1nc2sc3c(c2c(=O)n1-c1cccc(F)c1)C(c1ccccc1)CCC3` (stereo not drawn), in experiment [2], the inhibition entry was “Active”.
With `COC(=O)C(CSSCC(NCCC(=O)c1ccco1)C(=O)OC)NCCC(=O)c1ccco1` (stereo not drawn), the IC50 in experiment [1] worked out at 2900 nM.
`COC(=O)C(CSSCC(NCCC(=O)c1ncccn1)C(=O)OC)NCCC(=O)c1ncccn1` (stereo not drawn): the IC50 in experiment [1] stood at 5500 nM.
Consider `COC(=O)C(CSSCC(NCCC(=O)c1ccc(Br)cc1)C(=O)OC)NCCC(=O)c1ccc(Br)cc1` (stereo not drawn), for which the IC50 in experiment [1] was found to be 11000 nM.
The same measure, in the same setting: the value for `COC(=O)C(CCSSCCC(NCCC(=O)c1ccc(Br)s1)C(=O)OC)NCCC(=O)c1ccc(Br)s1` (stereo not drawn) was 99 nM; that for `COC(=O)C(CSSCC(NCCC(=O)c1ccc(I)s1)C(=O)OC)NCCC(=O)c1ccc(I)s1` (stereo not drawn) was 240 nM.
